According to patent US20250134901A1, “PHARMACEUTICAL COMPOSITION CONTAINING COMBINATION OF MELOXICAM AND RIZATRIPTAN AND PROCESS OF PREPARATION THEREOF” (Alembic Pharmaceuticals Limited, priority 2021, published 2025):
Values after ≈ are worked out from the molar mass of the structure shown. Read-outs that look alike come from different tables or passages of the source.

Assay: Solubility of meloxicam API in different pH buffered solutions
Format: physicochemical
Conditions: read-out: Meloxicam API Solubility (BCS)

## Cc1cnc(NC(=O)C2=C(O)c3ccccc3S(=O)(=O)N2C)s1 [Meloxicam, 4-hydroxy-2-methyl-N-(5-methyl-2-thiazolyl)-2H-1,2-benzothiazine-3-carboxamide-1,1-dioxide]
Aqueous buffer, pH 4.5 Acetate buffer
  solubility: 30 µg/mL (≈ 85.4 µM)
Aqueous buffer, pH 6.8 Phosphate Buffer
  solubility: 2700 µg/mL (≈ 7680 µM)
Aqueous buffer, pH 7.5 Phosphate buffer
  solubility: 110 µg/mL (≈ 313 µM)
Simulated gastric fluid, 0.01N HCl (pH 2.0)
  solubility: 20 µg/mL (≈ 56.9 µM)
